# Source: patent US20030215462A1, “Use of UGT inhibitors to increase bioavailability” (priority 2001, published 2003)
# Key:
# [1] = target: UGT1A7 (Homo sapiens, UniProt Q9HAW7); assay: Substrate glucuronidation by recombinant UGT1A7; type: in vitro ADME; settings: UGT1A7 Bacculosomes 250 μg/ml; 7-HFC 50 μM
# [2] = target: T1, UGT1A8 (Homo sapiens, UniProt Q9HAW9); assay: Substrate glucuronidation by recombinant UGT1A8; settings: UGT1A8 Supersomes 250 μg/ml; 7-HFC 50 μM
# T1 sequence (Q9HAW9 26-530): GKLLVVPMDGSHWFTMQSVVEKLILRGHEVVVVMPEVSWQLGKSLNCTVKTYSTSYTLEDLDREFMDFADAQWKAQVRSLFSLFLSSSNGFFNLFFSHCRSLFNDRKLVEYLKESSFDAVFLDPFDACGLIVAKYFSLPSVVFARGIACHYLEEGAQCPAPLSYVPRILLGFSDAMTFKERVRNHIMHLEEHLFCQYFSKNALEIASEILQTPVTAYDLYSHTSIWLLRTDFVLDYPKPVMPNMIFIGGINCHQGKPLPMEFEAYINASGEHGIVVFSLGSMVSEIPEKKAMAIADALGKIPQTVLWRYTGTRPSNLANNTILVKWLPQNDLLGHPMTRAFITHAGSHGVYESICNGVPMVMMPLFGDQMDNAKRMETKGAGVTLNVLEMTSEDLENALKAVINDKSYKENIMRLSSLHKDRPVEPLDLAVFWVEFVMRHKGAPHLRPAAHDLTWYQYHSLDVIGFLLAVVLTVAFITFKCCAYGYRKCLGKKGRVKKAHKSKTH
# [3] = target: T2, UGT2B7 (Homo sapiens, UniProt P16662); assay: Substrate glucuronidation by recombinant UGT2B7; settings: for 7-HFC glucuronidation rate: 7-HFC 50 μM
# T2 sequence (P16662 24-529): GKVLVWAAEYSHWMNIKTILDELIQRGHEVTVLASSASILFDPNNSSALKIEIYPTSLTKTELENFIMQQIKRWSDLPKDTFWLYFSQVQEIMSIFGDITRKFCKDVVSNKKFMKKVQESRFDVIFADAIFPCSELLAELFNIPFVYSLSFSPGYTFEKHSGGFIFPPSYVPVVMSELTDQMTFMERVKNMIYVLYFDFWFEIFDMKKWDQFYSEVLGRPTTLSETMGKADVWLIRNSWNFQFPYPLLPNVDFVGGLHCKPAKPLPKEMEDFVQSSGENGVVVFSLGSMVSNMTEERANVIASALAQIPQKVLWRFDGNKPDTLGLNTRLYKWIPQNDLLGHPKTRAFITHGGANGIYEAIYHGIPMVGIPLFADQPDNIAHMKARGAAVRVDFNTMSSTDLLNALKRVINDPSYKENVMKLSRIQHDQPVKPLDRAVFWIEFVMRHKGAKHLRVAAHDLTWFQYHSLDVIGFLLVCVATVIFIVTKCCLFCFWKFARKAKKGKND
# [4] = target: T3, UGT1A1 (Homo sapiens, UniProt P22309)
# T3 sequence (P22309 26-533): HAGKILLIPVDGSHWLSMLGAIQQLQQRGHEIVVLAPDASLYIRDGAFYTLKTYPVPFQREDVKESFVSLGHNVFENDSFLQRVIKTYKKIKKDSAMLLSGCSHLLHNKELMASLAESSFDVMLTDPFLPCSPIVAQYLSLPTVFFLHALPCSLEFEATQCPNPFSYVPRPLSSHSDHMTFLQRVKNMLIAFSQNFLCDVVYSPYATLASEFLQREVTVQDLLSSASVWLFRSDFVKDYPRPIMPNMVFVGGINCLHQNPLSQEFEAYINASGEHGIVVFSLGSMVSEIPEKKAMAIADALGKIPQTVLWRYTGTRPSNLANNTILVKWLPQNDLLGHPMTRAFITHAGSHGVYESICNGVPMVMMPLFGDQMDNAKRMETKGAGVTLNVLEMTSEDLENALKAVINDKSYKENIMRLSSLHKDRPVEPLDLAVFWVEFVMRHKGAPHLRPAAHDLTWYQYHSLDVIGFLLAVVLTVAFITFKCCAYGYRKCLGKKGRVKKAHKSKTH
# [5] = target: T4, UGT1A3 (Homo sapiens, UniProt P35503)
# T4 sequence (P35503 29-534): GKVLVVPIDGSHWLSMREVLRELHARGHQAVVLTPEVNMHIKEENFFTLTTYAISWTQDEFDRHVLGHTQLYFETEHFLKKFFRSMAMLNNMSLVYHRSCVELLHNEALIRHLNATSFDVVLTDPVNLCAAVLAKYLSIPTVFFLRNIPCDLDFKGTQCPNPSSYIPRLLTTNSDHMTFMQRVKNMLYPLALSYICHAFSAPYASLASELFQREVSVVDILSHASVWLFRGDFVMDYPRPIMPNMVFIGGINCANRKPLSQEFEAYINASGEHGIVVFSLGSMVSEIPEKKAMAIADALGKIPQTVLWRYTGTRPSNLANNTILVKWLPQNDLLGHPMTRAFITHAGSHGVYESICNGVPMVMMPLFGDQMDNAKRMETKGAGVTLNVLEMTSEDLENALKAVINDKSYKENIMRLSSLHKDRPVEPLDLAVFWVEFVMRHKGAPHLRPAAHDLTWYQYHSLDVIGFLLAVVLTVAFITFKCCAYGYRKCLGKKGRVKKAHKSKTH
# [6] = target: UGT1A4 (Homo sapiens, UniProt P22310)
# Sequence of UGT1A4 (P22310 29-534): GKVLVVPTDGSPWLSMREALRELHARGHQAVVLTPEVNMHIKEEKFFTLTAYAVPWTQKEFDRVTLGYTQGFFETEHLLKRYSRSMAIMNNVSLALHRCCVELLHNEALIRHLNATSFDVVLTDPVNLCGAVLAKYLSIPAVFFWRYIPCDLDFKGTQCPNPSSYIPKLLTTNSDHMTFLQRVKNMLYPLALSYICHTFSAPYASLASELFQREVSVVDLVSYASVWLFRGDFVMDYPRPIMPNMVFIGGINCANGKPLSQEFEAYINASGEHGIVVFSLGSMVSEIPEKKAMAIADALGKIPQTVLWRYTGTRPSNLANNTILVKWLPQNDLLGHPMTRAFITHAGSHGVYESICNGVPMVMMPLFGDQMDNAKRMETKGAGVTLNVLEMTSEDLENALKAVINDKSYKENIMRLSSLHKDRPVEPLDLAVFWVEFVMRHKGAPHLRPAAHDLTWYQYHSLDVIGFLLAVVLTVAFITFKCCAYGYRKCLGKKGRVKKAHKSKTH
# [7] = target: UGT2B15 (Homo sapiens, UniProt P54855)
# Sequence of UGT2B15 (P54855 24-530): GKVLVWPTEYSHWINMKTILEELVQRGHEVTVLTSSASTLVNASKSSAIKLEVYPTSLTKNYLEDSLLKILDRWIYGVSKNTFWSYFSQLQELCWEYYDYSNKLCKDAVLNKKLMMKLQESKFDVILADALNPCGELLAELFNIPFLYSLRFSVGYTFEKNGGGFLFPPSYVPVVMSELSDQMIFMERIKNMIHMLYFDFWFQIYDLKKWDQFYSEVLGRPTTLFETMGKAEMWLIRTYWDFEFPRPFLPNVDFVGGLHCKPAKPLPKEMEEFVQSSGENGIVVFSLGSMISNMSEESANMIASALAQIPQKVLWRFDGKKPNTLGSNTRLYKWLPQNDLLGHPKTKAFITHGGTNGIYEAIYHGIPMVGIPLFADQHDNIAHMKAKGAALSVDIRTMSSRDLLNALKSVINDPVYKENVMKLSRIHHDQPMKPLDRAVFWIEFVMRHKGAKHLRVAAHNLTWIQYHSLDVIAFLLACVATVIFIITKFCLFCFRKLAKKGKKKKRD
# [8] = humans; cited from earlier work
# [9] = healthy volunteers, concomitant diflunisal; cited from earlier work
# [10] = system: UGT enzymes of human liver microsomes; assay: Inhibition of zidovudine glucuronidation in human liver microsomes; type: biochemical
# Protocol: Compounds were eluted using a binary solvent gradient system where solvent A was dilute phosphoric acid (pH 3) and solvent B was acetonitrile.
# Standardized incubations utilized 500 μM zidovudine substrate, 1 mg/ml microsomal protein, 5 mM UDPGA and a 30 min incubation time. […] Int.
# Sequence of UGT1A7 (Q9HAW7 26-530): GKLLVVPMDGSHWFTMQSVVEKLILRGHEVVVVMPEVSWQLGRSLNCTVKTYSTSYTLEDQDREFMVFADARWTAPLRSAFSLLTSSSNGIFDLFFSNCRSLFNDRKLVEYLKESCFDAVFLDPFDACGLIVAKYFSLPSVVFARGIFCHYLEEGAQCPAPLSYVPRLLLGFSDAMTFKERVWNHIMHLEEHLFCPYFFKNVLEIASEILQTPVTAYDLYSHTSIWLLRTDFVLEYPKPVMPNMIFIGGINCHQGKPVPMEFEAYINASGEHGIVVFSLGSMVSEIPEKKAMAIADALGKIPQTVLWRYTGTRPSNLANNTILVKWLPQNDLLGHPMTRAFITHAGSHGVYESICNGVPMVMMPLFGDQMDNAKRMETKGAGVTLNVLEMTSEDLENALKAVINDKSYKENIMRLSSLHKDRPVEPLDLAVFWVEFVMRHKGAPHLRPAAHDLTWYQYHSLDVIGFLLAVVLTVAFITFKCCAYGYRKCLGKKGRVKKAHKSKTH
smiles,measurement,setting,value
"O=c1cc(C(F)(F)F)c2ccc(O)cc2o1 [7-HFC, 7-hydroxy-4-(trifluoromethyl)coumarin]",7-HFC glucuronidation rate,[1],564 ± 9 pmol/min/mg protein
same,7-HFC glucuronidation rate,[2],486 ± 5 pmol/min/mg protein
same,7-HFC glucuronidation rate in Panvera Bacculosomes as % of Gentest Supersomes,[3]; UGT2B7,22%
same,7-HFC glucuronidation rate,[3]; UGT2B7 Bacculosomes 250 μg/ml,212 ± 13 pmol/min/mg protein
same,7-HFC glucuronidation rate,[3]; UGT2B7 Supersomes 250 μg/ml,972 ± 72 pmol/min/mg protein
"CC(CCc1ccccc1)NCC(O)c1ccc(O)c(C(N)=O)c1 (stereo not drawn) [Labetalol, labetalol]","labetalol metabolism, in words",[4],No detectable metabolism was observed
same,"labetalol metabolism, in words",[5],No detectable metabolism was observed
same,"labetalol metabolism, in words",[6],No detectable metabolism was observed
same,"labetalol metabolism, in words",[7],No detectable metabolism was observed
same,absolute oral bioavailability,[8],25-30%
"O=C(O)c1cc(-c2ccc(F)cc2F)ccc1O [Diflunisal, reference compound]",decrease in indomethacin clearance,[9],70%
O=c1c(O)c(-c2ccc(O)c(O)c2)oc2cc(O)cc(O)c12 [Quercetin],"inhibition of zidovudine metabolism, in words",[10],ineffective
